IC50 data for nine molecules are collected here from patent publication US11613527B2, “Enzyme inhibitors” (KalVista Pharmaceuticals Limited, priority 2019, dated 2023).

As a reminder, the IC50 is the concentration that gives 50% inhibition.

Common to all, as to assay type: biochemical
In assay [1] the target is Human plasma kallikrein (Homo sapiens (Human), UniProt P03952). The assay is described as follows: Determination of the IC50 for plasma kallikrein (fluorogenic substrate H-DPro-Phe-Arg-AFC). As to conditions: class symbols A-D, read-out: IC50 (human PKal). How it is done:
The ability of the compounds of formula (I) to inhibit plasma kallikrein may be determined using the following biological assay:
Determination of the IC50 for Plasma Kallikrein
Plasma kallikrein inhibitory activity in vitro was determined using standard published methods (see e.g. Johansen et al., Int. J. Tiss. Reac. 1986, 8, 185; Shori et al., Biochem. Pharmacol., 1992, 43, 1209; Sturzebecher et al., Biol. Chem. Hoppe-Seyler, 1992, 373, 1025). Human plasma kallikrein (Protogen) was incubated at 25° C. with the fluorogenic substrate H-DPro-Phe-Arg-AFC and various concentrations of the test compound. Residual enzyme activity (initial rate of reaction) was determined by measuring the change in optical absorbance at 410 nm and the IC50 value for the test compound was determined.

The target of assay [2] is Human KLK1 (Homo sapiens (Human), UniProt P06870). The assay is described as follows: Determination of the IC50 for KLK1 (fluorogenic substrate H-DVal-Leu-Arg-AFC). On the procedure:
Selected compounds were further screened for inhibitory activity against the related enzyme KLK1. The ability of the compounds of formula (I) to inhibit KLK1 may be determined using the following biological assay:
Determination of the IC50 for KLK1
KLK1 inhibitory activity in vitro was determined using standard published methods (see e.g. Johansen et al., Int. J. Tiss. Reac. 1986, 8, 185; Shori et al., Biochem. Pharmacol., 1992, 43, 1209; Sturzebecher et al., Biol. Chem. Hoppe-Seyler, 1992, 373, 1025). Human KLK1 (Callbiochem) was incubated at 25° C. with the fluorogenic substrate H-DVal-Leu-Arg-AFC and various concentrations of the test compound. Residual enzyme activity (initial rate of reaction) was determined by measuring the change in optical absorbance at 410 nm and the IC50 value for the test compound was determined.

In assay [3] the target is Human FXIa (Homo sapiens (Human), UniProt P03951). In words: Determination of the % inhibition for FXIa (fluorogenic substrate Z-Gly-Pro-Arg-AFC; 40 μM or IC50). On the procedure:
Selected compounds were further screened for inhibitory activity against the related enzyme FXIa. The ability of the compounds of formula (I) to inhibit FXIa may be determined using the following biological assay:
Determination of the % Inhibition for FXIa
FXIa inhibitory activity in vitro was determined using standard published methods (see e.g. Johansen et al., Int. J. Tiss. Reac. 1986, 8, 185; Shori et al., Biochem. Pharmacol., 1992, 43, 1209; Sturzebecher et al., Biol. Chem. Hoppe-Seyler, 1992, 373, 1025). Human FXIa (Enzyme Research Laboratories) was incubated at 25° C. with the fluorogenic substrate Z-Gly-Pro-Arg-AFC and 40 μM of the test compound (or alternatively at various concentrations of the test compound in order to determine IC50). Residual enzyme activity (initial rate of reaction) was determined by measuring the change in optical absorbance at 410 nm and the IC50 value for the test compound was determined.

The structures appear in SMILES notation.

Chain of Human KLK1 (P06870 25-262): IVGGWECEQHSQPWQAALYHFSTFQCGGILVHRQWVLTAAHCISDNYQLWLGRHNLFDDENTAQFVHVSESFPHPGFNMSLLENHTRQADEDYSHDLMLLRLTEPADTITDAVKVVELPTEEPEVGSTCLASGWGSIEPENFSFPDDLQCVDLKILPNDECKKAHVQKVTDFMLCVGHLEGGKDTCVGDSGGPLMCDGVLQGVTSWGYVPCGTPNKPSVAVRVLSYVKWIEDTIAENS
Chain of Human FXIa (P03951 388-625): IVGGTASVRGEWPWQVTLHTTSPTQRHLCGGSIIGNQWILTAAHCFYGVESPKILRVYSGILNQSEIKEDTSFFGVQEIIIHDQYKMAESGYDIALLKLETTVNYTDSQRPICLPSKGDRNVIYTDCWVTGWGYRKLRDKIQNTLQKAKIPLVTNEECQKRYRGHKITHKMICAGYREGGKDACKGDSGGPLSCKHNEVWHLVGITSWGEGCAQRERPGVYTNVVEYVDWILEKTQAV
Chain of Human FXIa (P03951 19-387 partner): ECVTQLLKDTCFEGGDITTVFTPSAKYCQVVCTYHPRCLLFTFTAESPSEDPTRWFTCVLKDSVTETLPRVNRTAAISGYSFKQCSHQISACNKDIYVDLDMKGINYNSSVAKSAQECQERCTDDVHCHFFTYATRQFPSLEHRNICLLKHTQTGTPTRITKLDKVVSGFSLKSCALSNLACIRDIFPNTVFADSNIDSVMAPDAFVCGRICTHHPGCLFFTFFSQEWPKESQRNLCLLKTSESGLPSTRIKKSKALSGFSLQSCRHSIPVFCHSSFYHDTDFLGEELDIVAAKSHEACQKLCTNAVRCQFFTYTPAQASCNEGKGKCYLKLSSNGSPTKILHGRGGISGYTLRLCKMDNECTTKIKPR
Chain of Human plasma kallikrein (P03952 391-638): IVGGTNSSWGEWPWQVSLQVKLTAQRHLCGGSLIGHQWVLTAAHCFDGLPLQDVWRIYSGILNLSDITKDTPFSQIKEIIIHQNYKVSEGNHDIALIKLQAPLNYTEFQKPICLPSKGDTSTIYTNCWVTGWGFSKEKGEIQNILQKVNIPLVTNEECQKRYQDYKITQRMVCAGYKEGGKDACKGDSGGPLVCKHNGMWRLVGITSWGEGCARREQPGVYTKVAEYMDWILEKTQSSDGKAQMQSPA
Chain of Human plasma kallikrein (P03952 20-390 partner): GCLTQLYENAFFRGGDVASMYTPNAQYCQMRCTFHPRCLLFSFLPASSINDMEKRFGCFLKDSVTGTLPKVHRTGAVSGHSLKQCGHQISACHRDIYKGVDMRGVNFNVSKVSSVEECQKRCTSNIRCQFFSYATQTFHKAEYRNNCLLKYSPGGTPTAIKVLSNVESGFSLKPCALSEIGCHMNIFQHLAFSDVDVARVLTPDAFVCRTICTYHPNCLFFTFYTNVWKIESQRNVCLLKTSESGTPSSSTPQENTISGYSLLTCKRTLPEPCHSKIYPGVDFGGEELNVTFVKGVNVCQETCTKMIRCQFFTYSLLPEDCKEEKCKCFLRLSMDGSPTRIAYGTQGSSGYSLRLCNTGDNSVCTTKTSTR

Consider `COc1ccc(-n2cc(C)nn2)c(CNC(=O)c2cn(Cc3cn4c(n3)CN(C)CC4)nc2C(F)(F)F)c1F` [Example 61, N-{[2-fluoro-3-methoxy-6-(4-methyl-1,2,3-triazol-1-yl)phenyl]methyl}-1-({7-methyl-5H,6H,8H-imidazo[1,2-a]pyrazin-2-yl}methyl)-3-(trifluoromethyl)pyrazole-4-carboxamide], for which the values for the IC50 in assay [1], in assay [2] and in assay [3] were 0.03 to 0.1 µM, greater than 40 µM and greater than 40 µM, respectively.
In the case of `COCc1nn(Cc2cnc3c(c2Cl)CCN(C)C3)cc1C(=O)NCc1c(-n2cc(C)nn2)ccc(OC)c1F` [Example 64, 1-[(4-chloro-7-methyl-6,8-dihydro-5H-1,7-naphthyridin-3-yl)methyl]-N-{[2-fluoro-3-methoxy-6-(4-methyl-1,2,3-triazol-1-yl)phenyl]methyl}-3-(methoxymethyl)pyrazole-4-carboxamide], the IC50 was 0.03 to 0.1 µM in assay [1], greater than 40 µM in assay [2] and greater than 40 µM in assay [3].
As to `COCc1nn(Cc2ccc3c(c2)CCOC3)cc1C(=O)NCc1c(-n2cc(C)nn2)ccc(OC)c1F` [Example 68, 1-(3,4-dihydro-1H-2-benzopyran-6-ylmethyl)-N-{[2-fluoro-3-methoxy-6-(4-methyl-1,2,3-triazol-1-yl)phenyl]methyl}-3-(methoxymethyl)pyrazole-4-carboxamide], the IC50 in assay [1] is 0.01 to 0.03 µM; in assay [2], greater than 40 µM; in assay [3], greater than 40 µM.
For the molecule `COCc1nn(Cc2cc3n(n2)CCN(C)C3)cc1C(=O)NCc1c(-n2cc(C)nn2)ccc(OC)c1F` [Example 70, N-{[2-fluoro-3-methoxy-6-(4-methyl-1,2,3-triazol-1-yl)phenyl]methyl}-3-(methoxymethyl)-1-({5-methyl-4H,6H,7H-pyrazolo[1,5-a]pyrazin-2-yl}methyl)pyrazole-4-carboxamide], the 50% inhibitory concentration (IC50) in assay [1] was 0.01 to 0.03 µM; in assay [2], greater than 40 µM; in assay [3], greater than 40 µM.
Take `COCc1nn(Cc2ccc3c(c2)C(=O)N(C)CC3)cc1C(=O)NCc1c(-n2cc(C)nn2)ccc(OC)c1F` [Example 73, N-{[2-Fluoro-3-methoxy-6-(4-methyl-1,2,3-triazol-1-yl)phenyl]methyl}-3-(methoxymethyl)-1-[(2-methyl-1-oxo-3,4-dihydroisoquinolin-7-yl)methyl]pyrazole-4-carboxamide]: the half-inhibitory concentration (IC50) in assay [1] was 0.03 to 0.1 µM; in assay [2], greater than 40 µM; in assay [3] it was 11.3 µM.
Taken in the same sequence, the figures for `COc1ccc(-n2cc(C)nn2)c(CNC(=O)c2cn(Cc3cc4n(n3)C3(CC3)CN(C)C4)nc2C(F)F)c1F` [Example 82] were less than 0.01 µM, greater than 40 µM and 18.2 µM.
On to `COCc1nn(Cc2cnc3c(c2)CCN(C)C3)cc1C(=O)NCc1c(-n2cc(C)nn2)ccc(OC)c1F` [Example 102, N-{[2-fluoro-3-methoxy-6-(4-methyl-1,2,3-triazol-1-yl)phenyl]methyl}-3-(methoxymethyl)-1-[(7-methyl-6,8-dihydro-5H-1,7-naphthyridin-3-yl)methyl]pyrazole-4-carboxamide], for which the IC50 in assay [1] was less than 0.01 µM; in assay [2], greater than 40 µM; in assay [3], 34.2 µM.
Taken in the same sequence, the figures for `COCc1nn(Cc2cc(F)cc3c2CCN(C)C3)cc1C(=O)NCc1c(-n2cc(C)nn2)ccc(OC)c1F` [Example 103, 1-[(7-fluoro-2-methyl-3,4-dihydro-1H-isoquinolin-5-yl)methyl]-N-{[2-fluoro-3-methoxy-6-(4-methyl-1,2,3-triazol-1-yl)phenyl]methyl}-3-(methoxymethyl)pyrazole-4-carboxamide] were 0.03 to 0.1 µM, greater than 40 µM and greater than 40 µM.
For `COCc1nn(Cc2ccc3c(c2Cl)CCN(C)C3)cc1C(=O)NCc1c(-n2cc(C)nn2)ccc(OC)c1F` [Example 104, 1-[(5-chloro-2-methyl-3,4-dihydro-1H-isoquinolin-6-yl)methyl]-N-{[2-fluoro-3-methoxy-6-(4-methyl-1,2,3-triazol-1-yl)phenyl]methyl}-3-(methoxymethyl)pyrazole-4-carboxamide], the IC50 in assay [1] was 0.03 to 0.1 µM; in assay [2] it was greater than 40 µM; in assay [3], greater than 40 µM.
